In one assay the target is T1, OE19 (3A1) (Homo sapiens, UniProt P30838).
T1 sequence (P30838 1-453): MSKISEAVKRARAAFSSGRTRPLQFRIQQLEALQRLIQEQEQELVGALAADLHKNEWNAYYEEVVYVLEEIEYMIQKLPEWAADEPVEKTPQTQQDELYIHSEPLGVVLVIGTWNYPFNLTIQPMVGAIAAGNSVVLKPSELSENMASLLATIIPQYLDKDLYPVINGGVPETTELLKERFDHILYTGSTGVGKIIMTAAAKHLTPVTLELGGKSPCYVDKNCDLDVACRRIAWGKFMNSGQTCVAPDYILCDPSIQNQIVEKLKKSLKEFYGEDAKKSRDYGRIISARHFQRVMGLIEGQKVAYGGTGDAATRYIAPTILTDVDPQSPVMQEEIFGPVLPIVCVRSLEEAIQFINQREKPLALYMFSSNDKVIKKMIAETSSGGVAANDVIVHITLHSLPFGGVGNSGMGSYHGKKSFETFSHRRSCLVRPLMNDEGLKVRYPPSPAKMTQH
Put plainly: Cellular ALDEFLUOR assay in OE19 cells (preferential ALDH3A1 expression). The following applies: for Cell_Efficacy: Table S5, OE19 cells; for Cell_CC-v2: Table S5, cellular curve class.

The next assay concerns the target T2, Human ALDH3A1 (Homo sapiens, UniProt P30838).
T2 sequence (P30838 1-453): T1 sequence (P30838 1-453)
The experiment in a line: ALDH3A1 biochemical assay (benzaldehyde/NADP+, diaphorase-resazurin readout, 1,536-well). The following applies: for Efficacy: Table S5, biochemical; for CC-v2: Table S5, biochemical curve class. On the technique in general: Resazurin is reduced to fluorescent resorufin, in cell work by metabolically active cells.

SMILES strings stand for the structures.

As to `COc1cc(CNC(=O)c2csc(N3CCN(c4cccc(C(F)(F)F)c4)CC3)n2)ccc1F` [NCGC01396486-01], at OE19 (3A1), the Cell_Efficacy is reported as 0.00 and the Cell_CC-v2 is recorded as 4. On Human ALDH3A1, half-maximal activity (AC50) was put at 0.0159 µM, the Efficacy was -100.89 and the CC-v2 is -1.1.

On to `O=C(NCc1ccc2c(c1)C(=O)NCC2)c1csc(N2CCN(c3cccc(C(F)(F)F)c3)CC2)n1` [NCGC01397286-01], for which, at OE19 (3A1), the half-maximal activity concentration (AC50) (as a rule, the concentration giving half of the maximal activity seen) amounted to 0.398 µM; the Cell_Efficacy is reported as -10.99; the Cell_CC-v2 came out at 5. For the same compound, on Human ALDH3A1, the AC50 is 0.447 µM, the Efficacy is given as -60.58 and the CC-v2 was -1.2.

As for `CC(=O)c1cccc(CNC(=O)c2csc(N3CCN(c4cccc(C(F)(F)F)c4)CC3)n2)c1` [NCGC01397289-01], at OE19 (3A1), the activity was half-maximal at 0.342 µM (AC50), the Cell_Efficacy is listed as -79.11 and the Cell_CC-v2 is -1.3. At Human ALDH3A1, this compound returned an AC50 of 0.0251 µM, an Efficacy of -100.97 and a CC-v2 of -1.1.

At OE19 (3A1), `O=C(NCc1ccc2c(c1)CNC2=O)c1csc(N2CCN(c3cccc(C(F)(F)F)c3)CC2)n1` [NCGC01397290-02] registered a Cell_Efficacy of 0.00 and a Cell_CC-v2 of 5. At Human ALDH3A1, the activity was half-maximal at 0.398 µM (AC50), the Efficacy is listed as -53.79 and the CC-v2 is -1.2.

At OE19 (3A1), `CC(=O)c1ccc(CNC(=O)c2csc(N3CCN(c4cccc(C(F)(F)F)c4)CC3)n2)cc1` [NCGC01397292-01] returned an AC50 of 0.683 µM, a Cell_Efficacy of -111.50 and a Cell_CC-v2 of -2.1. On Human ALDH3A1, this compound yielded an AC50 of 0.02 µM, an Efficacy of -100.00 and a CC-v2 of -1.1.

Take `N#Cc1ccc(CNC(=O)c2csc(N3CCN(c4cccc(C(F)(F)F)c4)CC3)n2)cc1F` [NCGC01397293-01]: on OE19 (3A1), the AC50 was determined as 0.766 µM, the Cell_Efficacy is listed as -101.81 and the Cell_CC-v2 was -1.1. Also, on Human ALDH3A1, the AC50 was 0.0056 µM, the Efficacy is -100.05 and the CC-v2 is -1.1.

At OE19 (3A1), `O=C(NCc1ccc(-c2ccncc2)nc1)c1csc(N2CCN(c3cccc(C(F)(F)F)c3)CC2)n1` [NCGC01397294-01] had an AC50 of 8.46 µM, a Cell_Efficacy of -106.03 and a Cell_CC-v2 of -1.3. At Human ALDH3A1, this compound registered an AC50 of 0.0782 µM, an Efficacy of -73.44 and a CC-v2 of -1.2.

Consider `O=C(NCc1cc(F)cc(Br)c1)c1csc(N2CCN(c3cccc(C(F)(F)F)c3)CC2)n1` [NCGC01397297-01], for which, on OE19 (3A1), half-maximal activity (AC50) was put at 2.16 µM, the Cell_Efficacy is -85.43 and the Cell_CC-v2 is reported as -1.1. Moreover, on Human ALDH3A1, the AC50 amounted to 0.0036 µM, the Efficacy was -107.41 and the CC-v2 is given as -1.1.

Take `O=C(NCc1cccc([S+](=O)([O-])C(F)(F)F)c1)c1csc(N2CCN(c3cccc(C(F)(F)F)c3)CC2)n1` [NCGC01397299-01]: on OE19 (3A1), half-maximal activity (AC50) was put at 0.0794 µM, the Cell_Efficacy is on record as -61.99 and the Cell_CC-v2 is -1.2. Besides, on Human ALDH3A1, the AC50 was determined as 0.447 µM, the Efficacy was -37.47 and the CC-v2 is recorded as -1.2.

At OE19 (3A1), `O=C(NCc1ccc(-c2ccsc2)cc1)c1csc(N2CCN(c3cccc(C(F)(F)F)c3)CC2)n1` [NCGC01397331-01] came in with an AC50 of 3.05 µM, a Cell_Efficacy of -82.49 and a Cell_CC-v2 of -1.3. In addition, at Human ALDH3A1, the activity was half-maximal at 0.004 µM (AC50), the Efficacy was -97.11 and the CC-v2 was -1.1.

For `O=C(NC1CC1)c1ccc(CNC(=O)c2csc(N3CCN(c4cccc(C(F)(F)F)c4)CC3)n2)cc1` [NCGC01397384-01], on OE19 (3A1), the Cell_Efficacy was -16.71 and the Cell_CC-v2 came to 4. For the same compound, on Human ALDH3A1, the AC50 stood at 1.58 µM, the Efficacy was -41.09 and the CC-v2 is on record as -1.2.

At OE19 (3A1), `O=C(NCc1cccc(N2CCCC2=O)c1)c1csc(N2CCN(c3cccc(C(F)(F)F)c3)CC2)n1` [NCGC01397385-01] came in with an AC50 of 17.8 µM, a Cell_Efficacy of 23.55 and a Cell_CC-v2 of 5. On Human ALDH3A1, this compound had an AC50 of 0.708 µM, an Efficacy of -71.46 and a CC-v2 of -1.2.

On OE19 (3A1), `O=C(Nc1ccc(CNC(=O)c2csc(N3CCN(c4cccc(C(F)(F)F)c4)CC3)n2)cc1)c1ccncc1` [NCGC01397389-01] yielded an AC50 of 7.08 µM, a Cell_Efficacy of -125.53 and a Cell_CC-v2 of -2.1. On Human ALDH3A1, this compound showed an Efficacy of -20.50 and a CC-v2 of 4.

For the compound `CC1(C)Oc2ccc(CNC(=O)c3csc(N4CCN(c5cccc(C(F)(F)F)c5)CC4)n3)cc2O1` [NCGC01397390-01], at OE19 (3A1), the activity was half-maximal at 1.92 µM (AC50), the Cell_Efficacy is listed as -76.04 and the Cell_CC-v2 is -1.1. On Human ALDH3A1, half-maximal activity (AC50) was put at 0.0251 µM, the Efficacy is -96.99 and the CC-v2 is -1.1.

In the case of `N#Cc1cccc(CNC(=O)c2csc(N3CCN(c4cccc(C(F)(F)F)c4)CC3)n2)c1` [NCGC01397393-01], on OE19 (3A1), the activity was half-maximal at 0.965 µM (AC50), the Cell_Efficacy is -104.84 and the Cell_CC-v2 is -2.2. On Human ALDH3A1, this compound registered an AC50 of 0.0022 µM, an Efficacy of -100.26 and a CC-v2 of -1.1.

On to `O=C(Nc1ccc(F)cc1)c1ccc(CNC(=O)c2csc(N3CCN(c4cccc(C(F)(F)F)c4)CC3)n2)cc1` [NCGC01407706-01], for which, at OE19 (3A1), the Cell_Efficacy is given as 0.00 and the Cell_CC-v2 worked out at 4. At Human ALDH3A1, this compound came in with an AC50 of 0.0892 µM, an Efficacy of -65.00 and a CC-v2 of -1.2.

On OE19 (3A1), `Cc1cc(CNC(=O)c2csc(N3CCN(c4cccc(C(F)(F)F)c4)CC3)n2)cc(C)c1Br` [NCGC01407759-01] had a Cell_Efficacy of 0.00 and a Cell_CC-v2 of 5. On Human ALDH3A1, this compound showed an AC50 of 0.398 µM, an Efficacy of -29.26 and a CC-v2 of -1.4.

As to `O=C(NCc1ccccc1-c1ccc(Cl)cc1Cl)c1csc(N2CCN(c3cccc(C(F)(F)F)c3)CC2)n1` [NCGC01407762-01], at OE19 (3A1), the activity was half-maximal at 11.2 µM (AC50), the Cell_Efficacy is listed as -62.69 and the Cell_CC-v2 was -1.4. At Human ALDH3A1, this compound returned an Efficacy of 0.00 and a CC-v2 of 4.

On OE19 (3A1), `CC(C)(C)c1cccc(CNC(=O)c2csc(N3CCN(c4cccc(C(F)(F)F)c4)CC3)n2)c1` [NCGC01407765-01] came in with an AC50 of 0.282 µM, a Cell_Efficacy of -76.28 and a Cell_CC-v2 of -1.2. Moreover, at Human ALDH3A1, the AC50 is 0.447 µM, the Efficacy is on record as -37.12 and the CC-v2 is -1.2.

Take `Cc1cc(CNC(=O)c2csc(N3CCN(c4cccc(C(F)(F)F)c4)CC3)n2)ccc1-c1ccccc1` [NCGC01407768-01]: on OE19 (3A1), the AC50 is 15.8 µM, the Cell_Efficacy is -93.67 and the Cell_CC-v2 is -1.3. At Human ALDH3A1, the AC50 amounted to 0.316 µM, the Efficacy is -32.49 and the CC-v2 is -1.2.

At OE19 (3A1), `O=C(NCc1ccc(SC(F)(F)F)cc1)c1csc(N2CCN(c3cccc(C(F)(F)F)c3)CC2)n1` [NCGC01407771-01] gave an AC50 of 3.05 µM, a Cell_Efficacy of -89.96 and a Cell_CC-v2 of -1.2. At Human ALDH3A1, this compound yielded an AC50 of 0.0251 µM, an Efficacy of -94.50 and a CC-v2 of -1.1.

At OE19 (3A1), `Cc1ccc(CNC(=O)c2csc(N3CCN(c4cccc(C(F)(F)F)c4)CC3)n2)cc1C(F)(F)F` [NCGC01407772-01] yielded an AC50 of 0.644 µM, a Cell_Efficacy of -100.81 and a Cell_CC-v2 of -1.1. For the same compound, at Human ALDH3A1, the AC50 is 0.0596 µM, the Efficacy is given as -88.60 and the CC-v2 is recorded as -1.1.

Take `O=C(NCc1ccc(N2CCNC2=O)cc1)c1csc(N2CCN(c3cccc(C(F)(F)F)c3)CC2)n1` [NCGC01407779-01]: at OE19 (3A1), half-maximal activity (AC50) was put at 2.24 µM, the Cell_Efficacy is -130.58 and the Cell_CC-v2 is -1.1. Moreover, on Human ALDH3A1, the AC50 amounted to 0.794 µM, the Efficacy is -73.90 and the CC-v2 is reported as -1.2.

On OE19 (3A1), `CC(C)(C)c1cc(CNC(=O)c2csc(N3CCN(c4cccc(C(F)(F)F)c4)CC3)n2)cc(C(C)(C)C)c1` [NCGC01407780-01] yielded a Cell_Efficacy of 0.00 and a Cell_CC-v2 of 4. At Human ALDH3A1, the Efficacy is listed as -7.18 and the CC-v2 came out at 4.

On OE19 (3A1), `O=C(COc1cccc(CNC(=O)c2csc(N3CCN(c4cccc(C(F)(F)F)c4)CC3)n2)c1)NC1CC1` [NCGC01407783-01] registered an AC50 of 0.0316 µM, a Cell_Efficacy of -92.90 and a Cell_CC-v2 of -1.3. At Human ALDH3A1, the AC50 stood at 0.398 µM, the Efficacy is on record as -80.39 and the CC-v2 was -1.1.
